{"source": "patent US12109204B2", "about": "“Methods for treating muscular dystrophies” (The Regents of the University of California, priority 2018, dated 2024)", "type_in_all_cases": "cell-based, murine", "key": {"SSPN, sarcospan [1]": {"test_system": "SSPN, sarcospan", "experiment": "SSPN gene expression by qPCR in mdx myotubes", "details": "for SSPN gene expression over vehicle: 1-10 μM, 48 hours, normalized to β-actin (FIG. 10d)", "procedure": "(§1) RNA from myotubes treated for 48 hours was extracted from cells using Trizol-based (Thermo Fisher Scientific) phase separation. RNA concentrations were determined using a NanoDrop 1000 (Thermo Fisher Scientific) and 750 ng of RNA in a 20 μl reaction was reverse transcribed using iScript cDNA synthesis (Bio-Rad) with the following cycling conditions: 25° C. for 5 minutes, 42° C. for 30 minutes, 85° C. for 5 minutes. For quantitative PCR, SsoFast EvaGreen Supermix (Bio-Rad), 400 nM of each optimized forward and reverse primer (for primer descriptions see Table 1), and cDNA corresponding to 37.5 ng RNA were used to amplify cDNA measured by Applied Biosystems 7300 (Thermo Fisher Scientific) with the following reaction conditions: 55° C. for 2 minutes, 95° C. for 2 minutes, 40 cycles of 95° C. for 10 seconds and 62° C. for 30 seconds, and dissociation stage. Each sample was run in triplicate. Data was analyzed using the ddCT method and normalized to reference gene, GAPDH or β-actin, with vehicle-treated samples serving as the calibrator (relative expression of vehicle control=1). C2C12 cells (American Type Culture Collection) were grown at 37° C. with 5% CO2 in growth media containing DMEM (Gibco) with 20% FBS (Sigma-Aldrich). Upon reaching confluency, the media was replaced with differentiation media containing DMEM with 2% horse serum (Sigma-Aldrich). Conditionally immortalized H2K mdx myoblast cells with a nonsense mutation in exon 23 of dystrophin were a gift from Terrance Partridge, Ph.D. (Children's National Medical Center, Washington, D.C.). Cells were allowed to proliferate on 0.01% gelatin (Sigma-Aldrich) coated plates at 33° C. with 5% CO2 with growth media containing DMEM, 20% HI-FBS (Invitrogen), 2% L-glutamine (Sigma-Aldrich), 2% chicken embryo extract (Accurate Chemical), 1% penicillin-streptomycin (Sigma-Aldrich), and 20U/ml of fresh interferon gamma (Gibco). For differentiation, H2K mdx myoblasts were seeded on plates coated with 0.1 mg/ml matrigel (Corning) diluted in DMEM and grown in proliferation conditions. […]"}, "SSPN, sarcospan [2]": {"test_system": "SSPN, sarcospan", "experiment": "SSPN gene expression by qPCR in C2C12 wild-type myotubes", "details": "1-10 μM, 48 hours, normalized to β-actin (FIG. 10c)", "procedure": "as §1"}, "[3]": {"test_system": "hSSPN-Luciferase reporter cells (human sarcospan promoter reporter in C2C12)", "experiment": "hSSPN-Luciferase reporter assay (Bright-Glo)", "details": "doses between 3.9 nm to 1 μM, 48 hours (FIG. 10b)", "procedure": "C2C12 immortalized murine myoblasts cultured in growth media consisting of DMEM (Gibco) with 20% Fetal Bovine Serum (Sigma-Aldrich) at 37° C. with 5% CO2 were transfected with the hSSPN-EGFP or hSSPN-Luciferase linearized plasmids using Lipofectamine 3000 Transfection Reagent (Thermo Fisher Scientific). Transfected cells were selected using 800 μg/ml of G418 (Sigma-Aldrich) for 4 weeks to generate stable cell lines expressing reporter protein under control of the human SSPN promoter.\nhSSPN-Luciferase myoblasts were cultured as described above. After 48 hours of treatment, plates were allowed to equilibrate to room temperature before the media was aspirated using an EL406 combination washer dispenser at room temperature. Bright-Glo luciferase assay system reagent (Promega) and differentiation media were added to cells at a 1:2 dilution using a Multidrop 384. After a 3-minute incubation at room temperature, luminescence signal was quantified using an Envision plate reader (PerkinElmer). The relative luminescence units were analyzed to determine fold change of treated over vehicle treated cells.\nCells were treated for 48 hours beginning at day 2 of differentiation with DMSO (vehicle control, ATCC), felodipine (Sigma), nilvadipine (Sigma), alloxazine (Sigma), GW5074 (Sigma), methylthioadenosine (Santa Cruz Biotechnology), or ezutromid (Cayman Chemicals) diluted in cell type specific differentiation media at doses listed in the figures. For gene expression studies, each treatment was performed in duplicate. For protein studies, each treatment was performed with single or double replicates."}}}
{"smiles": "CCOC(=O)C1=C(C)NC(C)=C(C(=O)OC)C1c1cccc(Cl)c1Cl", "note": "(stereo not drawn) [Felodipine, 5-O-ethyl 3-O-methyl 4-(2,3-dichlorophenyl)-2,6-dimethyl-1,4-dihydropyridine-3,5-dicarboxylate]", "values": [{"measurement": "SSPN gene expression over vehicle", "setting": "SSPN, sarcospan [1]", "value": "increases sarcospan gene expression"}, {"measurement": "SSPN gene expression over vehicle", "setting": "SSPN, sarcospan [1]; listed as felodipine", "value": "increase in SSPN gene expression"}, {"measurement": "SSPN gene expression relative to vehicle", "setting": "SSPN, sarcospan [1]; 48h, normalized to GAPDH, n=2 (FIG. 11d)", "value": "only increased sarcospan levels"}, {"measurement": "SSPN gene expression over vehicle", "setting": "SSPN, sarcospan [2]", "value": "increases sarcospan gene expression"}, {"measurement": "SSPN gene expression over vehicle", "setting": "SSPN, sarcospan [2]; listed as felodipine", "value": "increased over vehicle"}, {"measurement": "hSSPN-Luciferase reporter activity, counterscreen", "setting": "[3]", "value": "increased activity"}]}
